{
  "source": "patent US20050026223A1",
  "about": "“Method and compositions for increasing bone mass” (The Board of Trustees of the University of Arkansas, priority 1999, published 2005)",
  "key": {"[1]": {"system": "osteoblastic cells derived from murine calvaria", "experiment": "Etoposide-induced apoptosis of osteoblastic cells derived from murine calvaria (trypan blue uptake)", "type": "cell-based", "conditions": "for Lowest Effective Concentration: inhibition of etoposide-induced osteoblast apoptosis, 1 hour pretreatment, trypan blue after 6 hours; for Suppression by 10^−8 M Flutamide: suppression of the anti-apoptotic effect by the androgen receptor antagonist flutamide; for Anti-apoptotic effect on osteoblastic cells after ICI182,780: compound 10^−8 M, 1 h pretreatment with ICI182,780 10^−7 M", "protocol": "Osteoblastic cells derived from murine calvaria were pretreated with the sterols for 1 hour before the addition of the pro-apoptotic agent, etoposide. Apoptosis was determined after 6 hours by trypan blue uptake (Jilka et al, J. Bone and Min. Res. 13:793:802, 1998). * indicates p<0.05 versus etoposide alone, by analysis of variance (ANOVA) (Student-Newman-Keuls method).\nOsteoblastic cells derived from murine calvaria were pretreated for 1 hour with the pure receptor antagonist ICI182,780 (10^−7 M) before the addition of the test agents (10^−8 M). Apoptosis was induced and quantified as described in FIG. 3. * indicates p<0.05 versus etoposide alone, by ANOVA (Student-Newman-Keuls method).\nIn this experiment, osteoblastic cells were derived from murine calvaria and were pretreated with the sterols for 1 hour before the addition of the pro-apoptotic agent, etoposide.\nIn these experiments, cells were pretreated with the indicated concentrations of the various compounds for 1 hour, in the absence or presence of the androgen receptor antagonist flutamide, before the addition of the proapoptotic agent etoposide. Apoptosis was determined after 6 hours by trypan blue uptake as described in FIG. 3."}, "[2]": {"system": "MLO-Y4 osteocytic cells", "experiment": "Dexamethasone-induced apoptosis of MLO-Y4 osteocytic cells with PD98059", "type": "cell-based, murine", "conditions": "compound 10^−8 M; PD98059 1 hour; dexamethasone 6 hours", "protocol": "Apoptosis was induced by incubation with the pro-apoptotic agent dexamethasone for 6 hour and quantified as described in FIG. 3. * indicates p<0.05 versus the corresponding control group without dexamethasone, by ANOVA (Student-Newman-Keuls method).\nThat indeed the anti-apoptotic effect of all the compounds tested herein was mediated via activation of ERKs was established by the results of the experiments shown in FIG. 10. […] Apoptosis was induced by incubation with the pro-apoptotic agent dexamethasone for 6 hours and quantified as described in FIG. 3."}, "[3]": {"system": "MLO-Y4 osteocytic cells", "experiment": "Etoposide-induced apoptosis of MLO-Y4 osteocytic cells (trypan blue uptake)", "type": "cell-based, murine", "conditions": "for Inhibition of etoposide-induced apoptosis of osteocytic cell line: 1 h pretreatment before etoposide, trypan blue after 6 h; for Antiapoptotic effect on osteocytes after ICI182,780: 1 h pretreatment with ICI182,780 10^−7 M", "protocol": "Cells were pretreated with the indicated concentrations of the compounds for 1 hour before the addition of the pro-apoptotic agent etoposide. Apoptosis was determined after 6 hour by trypan blue uptake as described in FIG. 3. * indicates p<0.05 versus etoposide alone, by ANOVA (Student-Newman-Keuls method).\nMLO-Y4 cells were pretreated for 1 hour with the pure receptor antagonist ICI182,780 (10^−7 M) before the addition of the test agents (10^−8 M). Apoptosis was induced and quantified as described in FIG. 3. * indicates p<0.05 versus etoposide alone, by ANOVA (Student-Newman-Keuls method).\nIn this experiment, MLO-Y4 cells were pretreated with the indicated concentrations of the various compounds for 1 h before the addition of the pro-apoptotic agent, etoposide. Apoptosis was determined after 6 h by trypan blue uptake as described in FIG. 3."}, "[4]": {"system": "HeLa cells transfected with estrogen receptor β (mERβ)", "experiment": "Etoposide-induced apoptosis of HeLa cells stably transfected with mERβ", "type": "cell-based, human", "conditions": "compound 10^−8 M 1 h, etoposide 5×10^−5 M 6 hour", "description": "(§1) CMV promoter alone and CMV promoter-driven cDNA for mERα or mErβ were stably transfected into HeLa cells. […] Cells were trypsinized, pelleted and trypan blue positive cells enumerated.\n(§2) In this experiment, instead of calvaria cells, human HeLa cells which contain undetectable, if any, estrogen receptor were used. HeLa cells were stably transfected with either a CMV promoter-driven cDNA for the murine estrogen receptor-alpha (mERα) or a CMV promoter-driven cDNA for the murine estrogen receptor-beta (mERβ). […] Cells were trypsinized, pelleted and trypan blue positive cells were enumerated."}, "[5]": {"system": "HeLa cells transfected with the estrogen receptor α (mERα)", "experiment": "Etoposide-induced apoptosis of HeLa cells stably transfected with mERα", "type": "cell-based, human", "conditions": "compound 10^−8 M 1 h, etoposide 5×10^−5 M 6 hour", "description": "as §1, §2"}, "[6]": {"system": "wild type HeLa cells", "experiment": "Etoposide-induced apoptosis of wild type HeLa cells", "type": "cell-based, human", "conditions": "compound 10^−8 M 1 h, etoposide 5×10^−5 M 6 hour", "description": "CMV promoter alone and CMV promoter-driven cDNA for mERα or mErβ were stably transfected into HeLa cells. […] Cells were trypsinized, pelleted and trypan blue positive cells enumerated. Each bar represents mean of duplicate experiments ±SEM. *P<0.02 versus etoposide alone.\nas §2"}, "[7]": {"system": "extracellular signal regulated kinases (ERKs) 1 and 2", "experiment": "Western blot of phosphorylated ERK1/2 in MLO-Y4 osteocytic cells", "type": "cell-based, murine", "conditions": "for Activation of ERKs (phosphorylated fraction of ERK1/2): 10^−8 M, 5, 15 or 30 minutes; for Ability to activate ERKs in the presence of PD98059: compound 10^−8 M, 5 minutes, 50 μM PD98059", "protocol": "(§3) MLO-Y4 osteocytic cells were incubated for 25 minutes in serum-free medium. […] Cell lysates were prepared and proteins were separated by electrophoresis in polyacrylamide gels and transferred to PVDF membranes. Western blotting was performed using a specific antibody recognizing phosphorylated ERKs 1 and 2, followed by reblotting with an antibody recognizing total ERKs. Blots were developed by enhanced chemiluminescence.\nas §3, with “MLO-Y4” for “MLO-Y4 osteocytic”, “medium in the presence or absence of 50 μM PD98059.” for “medium.”\nas §3, with “In this experiment, MLO-Y4” for “MLO-Y4”, “extracellular signal regulated kinases” for “ERKs”, “extracellular signal regulated kinases.” for “ERKs.”, “chemiluminescence. […] This effect is too rapid to be accounted for by the classical mechanism of estrogen action.” for “chemiluminescence.”\nas §3, with “In this experiment, MLO-Y4” for “MLO-Y4”, “medium in the presence or absence of 50 μM PD98059.” for “medium.”, “extracellular signal regulated kinases” for “ERKs”, “extracellular signal regulated kinases.” for “ERKs.”"}, "[8]": {"system": "osteoclasts", "conditions": "increased from approximately 0.5%; cited from earlier work"}, "[9]": {"conditions": "rats, intravenously; cited from earlier work"}, "[10]": {"conditions": "human iliac trabecular bone, after one year of treatment; cited from earlier work"}, "[11]": {"conditions": "for at least four years; cited from earlier work"}, "[12]": {"system": "osteoblasts", "conditions": "intermittent administration in mice; decreased from 1.7-2.2%; cited from earlier work"}},
  "data": [
    {"molecule": "C[C@]12CCC(=O)C=C1CC[C@@H]1[C@@H]2CC[C@]2(C)C(=O)CC[C@@H]12", "note": "[4-androstene-3,17-dione]", "values": [
      {"measurement": "Lowest Effective Concentration", "setting": "[1]", "value": "10^−8 M"},
      {"measurement": "Suppression by 10^−8 M Flutamide", "setting": "[1]", "value": "yes"}
    ]},
    {"molecule": "C[C@]12CC[C@H]3[C@@H](CC=C4C[C@@H](O)CC[C@@]43C)[C@@H]1CC[C@@H]2O", "note": "[5-androstene-3β-17_-diol]", "values": [
      {"measurement": "Lowest Effective Concentration", "setting": "[1]", "value": "10^−8 M"},
      {"measurement": "Suppression by 10^−8 M Flutamide", "setting": "[1]", "value": "yes"}
    ]},
    {"molecule": "C[C@]12CCC(=O)C[C@@H]1CC[C@@H]1[C@@H]2CC[C@]2(C)[C@@H](O)CC[C@@H]12", "note": "[5-α-dihydrotestosterone]", "values": [
      {"measurement": "Lowest Effective Concentration", "setting": "[1]", "value": "10^−9 M"},
      {"measurement": "Suppression by 10^−8 M Flutamide", "setting": "[1]", "value": "yes"}
    ]},
    {"molecule": "C[C@]12CCC(=O)C[C@@H]1CC[C@@H]1[C@@H]2CC[C@]2(C)[C@@H](O)CC[C@@H]12", "note": "[5-β-dihydrotestosterone]", "values": [
      {"measurement": "Lowest Effective Concentration", "setting": "[1]", "value": "10^−10 M"},
      {"measurement": "Suppression by 10^−8 M Flutamide", "setting": "[1]", "value": "yes"}
    ]},
    {"molecule": "C[C@]12CC[C@@H]3c4ccc(O)cc4CC[C@H]3[C@@H]1CC[C@H]2O", "note": "[17α-estradiol]", "values": [
      {"measurement": "Anti-apoptotic effect after PD98059 pretreatment", "setting": "[2]", "value": "prevented the anti-apoptotic effect"},
      {"measurement": "Inhibition of etoposide-induced apoptosis of osteocytic cell line", "setting": "[3]", "value": "dose-dependently inhibited"},
      {"measurement": "Antiapoptotic effect on osteocytes after ICI182,780", "setting": "[3]", "value": "abrogated"},
      {"measurement": "Effect on etoposide-induced apoptosis", "setting": "[4]", "value": "potently inhibited"},
      {"measurement": "Anti-apoptotic effect on osteoblastic cells after ICI182,780", "setting": "[1]", "value": "abrogated"},
      {"measurement": "Effect on etoposide-induced apoptosis", "setting": "[5]", "value": "potently inhibited"},
      {"measurement": "Effect on etoposide-induced apoptosis", "setting": "[6]", "value": "none of the three compounds had any effect"},
      {"measurement": "Activation of ERKs (phosphorylated fraction of ERK1/2)", "setting": "[7]", "value": "activated"},
      {"measurement": "Ability to activate ERKs in the presence of PD98059", "setting": "[7]", "value": "abrogated"}
    ]},
    {"molecule": "C[C@]12CC[C@@H]3c4ccc(O)cc4CC[C@H]3[C@@H]1CC[C@@H]2O", "note": "[17β-estradiol, reference compound]", "values": [
      {"measurement": "Anti-apoptotic effect after PD98059 pretreatment", "setting": "[2]", "value": "prevented the anti-apoptotic effect"},
      {"measurement": "Inhibition of etoposide-induced apoptosis of osteocytic cell line", "setting": "[3]", "value": "dose-dependently inhibited"},
      {"measurement": "Antiapoptotic effect on osteocytes after ICI182,780", "setting": "[3]", "value": "abrogated"},
      {"measurement": "Apoptosis of osteoclasts", "setting": "[8]", "value": "≤ 2.7", "unit": "%"},
      {"measurement": "Effect on etoposide-induced apoptosis", "setting": "[4]", "value": "potently inhibited"},
      {"measurement": "Inhibition of etoposide-induced osteoblast apoptosis", "setting": "[1]; 1 hour pretreatment before etoposide", "value": "prevented apoptosis of osteoblastic cells isolated from murine calvaria, in a dose dependent manner"},
      {"measurement": "Anti-apoptotic effect on osteoblastic cells after ICI182,780", "setting": "[1]", "value": "abrogated"},
      {"measurement": "Effect on etoposide-induced apoptosis", "setting": "[5]", "value": "potently inhibited"},
      {"measurement": "Effect on etoposide-induced apoptosis", "setting": "[6]", "value": "none of the three compounds had any effect"},
      {"measurement": "Activation of ERKs (phosphorylated fraction of ERK1/2)", "setting": "[7]", "value": "activated"},
      {"measurement": "Ability to activate ERKs in the presence of PD98059", "setting": "[7]", "value": "abrogated"}
    ]},
    {"molecule": "C[C@]12CC[C@H](OS(=O)(=O)O)CC1=CC[C@@H]1[C@@H]2CC[C@]2(C)C(=O)CC[C@@H]12", "note": "[Dehydroisoandrosterone-3-sulfate (DHES), Dehydroisoandrosterone-3-sulfate]", "values": [
      {"measurement": "Lowest Effective Concentration", "setting": "[1]", "value": "10^−8 M"},
      {"measurement": "Suppression by 10^−8 M Flutamide", "setting": "[1]", "value": "no*"}
    ]},
    {"molecule": "CC(=O)N[C@@H](CS)C(=O)O", "note": "[N-acetylcysteine, acetamido-mercaptopropionic acid]", "values": [
      {"measurement": "LD50", "setting": "[9]", "value": 1140, "unit": "mg/kg"}
    ]},
    {"molecule": "C[C@]1(O)CC[C@H]2[C@@H]3CCC4=CC(=O)CCC4=C3C=C[C@@]21C", "note": "[RU1881]", "values": [
      {"measurement": "Lowest Effective Concentration", "setting": "[1]", "value": "10^−8 M"},
      {"measurement": "Suppression by 10^−8 M Flutamide", "setting": "[1]", "value": "yes"}
    ]},
    {"molecule": "C[C@]12CC[C@H]3[C@@H](CCC4=CC(=O)CC[C@@]43C)[C@@H]1CC[C@@H]2O", "note": "[Testosterone]", "values": [
      {"measurement": "Lowest Effective Concentration", "setting": "[1]", "value": "10^−9 M"},
      {"measurement": "Suppression by 10^−8 M Flutamide", "setting": "[1]", "value": "yes"}
    ]},
    {"molecule": "CC(O)(P(=O)(O)O)P(=O)(O)O", "note": "[etidronate]", "values": [
      {"measurement": "Reduction of resorption depth", "setting": "[10]", "value": "~30", "unit": "%"}
    ]},
    {"molecule": "[F-].[Na+]", "note": "[sodium fluoride]", "values": [
      {"measurement": "Increase of vertebral bone mass", "setting": "[11]", "value": 10, "unit": "% a year"}
    ]},
    {"molecule": "PTH: parathyroid hormone, an agent known for its role in calcium homeostasis (protein, UniProt P01270 32-115, looked up, Parathyroid hormone, parathyroid hormone, an agent known for its role in calcium homeostasis) Parathyroid hormone: SVSEIQLMHNLGKHLNSMERVEWLRKKLQDVHNFVALGAPLAPRDAGSQRPRKKEDNVLVESHEKSLGEADKADVNVLTKAKSQ", "values": [
      {"measurement": "Prevalence of osteoblast apoptosis", "setting": "[12]", "value": "0.1-0.4%"}
    ]}
  ]
}
